Data as given in paper PMC7403315, “Cyclic peptide FXII inhibitor provides safe anticoagulation in a thrombosis model and in artificial lungs” (Nature Communications, 2020).
Several values for one entry are separate records, joined by “and”; a condition that tells them apart may be missing. Equal values may be shown once. Starred links: 1 amine or outer side, 2 acyl side, 3 side chain; linkers in the order of their positions; H or OH if unused. Positions of bridges follow the written chain, without caps; N, C: chain ends. Non-standard residues stand in square brackets, D forms with d. Residues, ends and D or L forms follow the SMILES beside them. TATA = O=C(CC[*:1])N1CN(C(=O)CC[*:2])CN(C(=O)CC[*:3])C1; Phe(4-F) = N[C@@H](Cc1ccc(F)cc1)C(=O)O; β3hR = N=C(N)NCCC[C@H](N)CC(=O)O

Experiments:
[1] = Plasma stability assay (residual FXIIa inhibitory activity after plasma incubation); assay type: in vitro ADME, human; settings: human, plasma
Description: Peptide (2 μl of 2 mM in H2O) was added to 398 μl of citrated human plasma (Innovative Research) to obtain a final peptide concentration of 10 μM. The mixture was incubated in a water bath at 37 °C. At different time points (0, 0.5, 1, 2, 4, 8, 12, 24, 48, and 96 h), samples of 30 μl were removed, diluted to 200 μl with aqueous buffer (10 mM Tris-HCl, pH 7.4, 150 mM NaCl, 10 mM MgCl2, 1 mM CaCl2), and incubated for 20 min at 65 °C to inactivate plasma proteases. The peptide/plasma samples were stored at −20 °C until the residual inhibitory activity of the peptides was measured in a FXIIa inhibition assay. […] IC50 values were derived from the fitted curve using an equation described in the Supplementary Methods. Residual inhibition in % was calculated using the equation IC50,0h/IC50,xh*100, wherein IC50,0h is the functional strength of the inhibitor at time point 0 and IC50,xh the functional strength of the inhibitor after one of the different plasma incubation periods mentioned above.

Mouse α-FXIIa = target: T1, Mouse α-FXIIa (Mus musculus, UniProt Q80YC5); experiment: FXIIa protease inhibition assay with fluorogenic substrate Boc-Gln-Gly-Arg-AMC; assay type: biochemical; settings: purified peptide without coumarin label; read-out: Ki mouse FXIIa
T1 construct: Mouse α-FXIIa; purchased Molecular Innovations MFXIIA
T1 sequence (Q80YC5 355-597 limits assumed): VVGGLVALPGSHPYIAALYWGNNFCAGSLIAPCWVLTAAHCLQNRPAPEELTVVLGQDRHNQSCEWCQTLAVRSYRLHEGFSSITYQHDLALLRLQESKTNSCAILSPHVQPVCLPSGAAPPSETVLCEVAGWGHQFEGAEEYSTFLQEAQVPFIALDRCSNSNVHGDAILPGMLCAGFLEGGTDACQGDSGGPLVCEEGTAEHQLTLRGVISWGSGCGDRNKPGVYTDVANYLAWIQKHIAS
T1 sequence (Q80YC5 20-354 limits assumed): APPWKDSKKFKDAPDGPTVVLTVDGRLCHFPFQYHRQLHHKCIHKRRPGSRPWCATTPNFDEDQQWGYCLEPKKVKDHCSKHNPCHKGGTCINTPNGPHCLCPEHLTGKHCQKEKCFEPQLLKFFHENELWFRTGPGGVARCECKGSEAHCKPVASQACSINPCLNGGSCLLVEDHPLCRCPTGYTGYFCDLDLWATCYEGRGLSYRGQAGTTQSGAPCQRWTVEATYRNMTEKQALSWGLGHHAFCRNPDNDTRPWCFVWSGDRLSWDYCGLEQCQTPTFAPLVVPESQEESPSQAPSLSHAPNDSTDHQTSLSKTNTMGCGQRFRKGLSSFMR
Description: (§1) In order to test the inhibitory activity of peptides without prior purification, we developed the following method. […] After solid-phase peptide synthesis, cleavage, and ether precipitation, the peptides were chemically cyclized and their Ki values were determined in a FXIIa activity assay using a fluorogenic substrate.
(§2) Protease inhibition assays
(§3) The inhibitory activity of peptides was determined by measuring the residual protease activity with a fluorogenic substrate. The assay was performed in buffer containing 10 mM Tris-Cl, pH […]
(§4) 1% (v/v) DMSO in a volume of 150 µl. FXIIa activity was measured with the fluorogenic substrate Boc-Gln-Gly-Arg-AMC (Bachem) at a final concentration of 50 µM. Mouse α-FXIIa (Molecular Innovations cat # MFXIIA) and human β-FXIIa (Molecular Innovations cat # HFXIIAB) were used at final concentrations of 0.4 nM. The reaction was pipetted as follows: 50 µl of bicyclic peptide in assay buffer were added to 50 µl of FXIIa in assay buffer and incubated for 10 minutes at 25°C before 50 µl of 150 µM fluorogenic substrate in assay buffer were added to measure the residual protease activity with an Infinite M200Pro fluorescence plate reader (excitation at 368 nm, emission at 467 nm; Tecan) for a period of 30 minutes with a read every minute at 25°C. The Tecan software i-control (version 1.1) was used for data analysis. Stock solutions of 1 mM bicyclic peptide were prepared by either dissolving the unpurified cyclization reaction with water or by dissolving purified and lyophilized peptide in water. The bicyclic peptides were serially diluted two-fold using assay buffer. Sigmoidal curves were fitted to the data using the following dose response equation (1), wherein x = peptide concentration, y = % protease activity, and p = Hill slope. IC50 values were derived from the fitted curve.
(§5) The inhibition constants (Ki) were calculated according to the equation of Cheng and Prusoff, Ki = IC50/(1+([S]0/Km), wherein IC50 is the functional strength of the inhibitor, [S]0 is the total substrate concentration, and Km is the Michaelis-Menten constant. […]
(§6) the substrate Boc-Gln-Gly-Arg-AMC. […]

human β-FXIIa = target: T2, human β-FXIIa (Homo sapiens, UniProt P00748); experiment: as above; assay type: biochemical; settings: for Ki: purified peptide without coumarin label, read-out: Ki human FXIIa
T2 construct: human β-FXIIa (Molecular Innovations cat #); purchased Molecular Innovations HFXIIAB; host or cells: human blood
Description: as §1, §2, §3, §4, §5, §6

[2] = inhibitor 0.390625 nM, 0.000390625 µM
[3] = inhibitor 0.390625 nM, read-out: Residual activity of human FXIIa
[4] = inhibitor 0.78125 nM, 0.00078125 µM
[5] = inhibitor 0.78125 nM, read-out: Residual activity of human FXIIa
[6] = inhibitor 1.5625 nM, 0.0015625 µM
[7] = inhibitor 1.5625 nM, read-out: Residual activity of human FXIIa
[8] = inhibitor 3.125 nM, 0.003125 µM
[9] = inhibitor 3.125 nM, read-out: Residual activity of human FXIIa
[10] = inhibitor 6.25 nM, read-out: Residual activity of human FXIIa
[11] = inhibitor 12.5 nM, read-out: Residual activity of human FXIIa

T2 sequence (P00748 373-615 limits assumed, other chains not shown): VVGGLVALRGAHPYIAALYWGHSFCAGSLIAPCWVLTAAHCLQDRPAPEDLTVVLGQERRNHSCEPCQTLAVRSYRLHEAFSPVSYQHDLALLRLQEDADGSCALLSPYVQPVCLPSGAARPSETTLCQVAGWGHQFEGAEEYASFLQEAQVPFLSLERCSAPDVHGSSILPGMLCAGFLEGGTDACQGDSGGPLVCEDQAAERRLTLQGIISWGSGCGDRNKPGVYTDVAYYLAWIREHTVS

Structure (SMILES)	Ki (Mouse α-FXIIa) [nM]	Residual activity of human FXIIa (human β-FXIIa; [2]) [%]	remaining activity at 0.000390625 µM (human β-FXIIa; [3]) [%]	Residual activity of human FXIIa (human β-FXIIa; [4]) [%]	remaining activity at 0.00078125 µM (human β-FXIIa; [5]) [%]	Residual activity of human FXIIa (human β-FXIIa; [6]) [%]	remaining activity at 0.0015625 µM (human β-FXIIa; [7]) [%]	Residual activity of human FXIIa (human β-FXIIa; [8]) [%]	remaining activity at 0.003125 µM (human β-FXIIa; [9]) [%]	Residual activity of human FXIIa (human β-FXIIa; inhibitor 6.25 nM, 0.00625 µM) [%]	remaining activity at 0.00625 µM (human β-FXIIa; [10]) [%]	Residual activity of human FXIIa (human β-FXIIa; inhibitor 12.5 nM, 0.0125 µM) [%]	remaining activity at 0.0125 µM (human β-FXIIa; [11]) [%]	Residual activity of human FXIIa (human β-FXIIa; inhibitor 50 nM, 0.05 µM)	Residual activity of human FXIIa (human β-FXIIa; inhibitor 100 nM, 0.1 µM)	Residual activity of human FXIIa (human β-FXIIa; inhibitor 200 nM, 0.2 µM)	Residual activity of human FXIIa (human β-FXIIa; inhibitor 400 nM, 0.4 µM)	Ki (human β-FXIIa) [nM]	also measured
CC(C)C[C@@H]1NC(=O)[C@H](CCC(N)=O)NC(=O)[C@H](CCCNC(=N)N)NC(=O)[C@@H]2CSCCC(=O)N3CN(CN(C3)C(=O)CCSC[C@H](NC(=O)[C@@H](CO)NC(=O)[C@H](N)CCCNC(=N)N)C(=O)N[C@@H](Cc3ccccc3)C(=O)N[C@@H](CCCNC(=N)N)C(=O)N[C@@H](CC(C)C)C(=O)N3CCC[C@H]3C(=O)N2)C(=O)CCSC[C@@H](C(=O)N[C@@H](CCCNC(=N)N)C(N)=O)NC(=O)[C@H](CCCNC(=N)N)NC1=O [FXII850] (HELM PEPTIDE1{[dR].[dS].C.F.R.L.P.C.R.Q.L.R.C.R.[am]}|CHEM1{[O=C(CC[*:1])N1CN(C(=O)CC[*:2])CN(C(=O)CC[*:3])C1]}$PEPTIDE1,CHEM1,3:R3-1:R1|PEPTIDE1,CHEM1,8:R3-1:R2|PEPTIDE1,CHEM1,13:R3-1:R3$$$V2.0)	35	94.4127	97.1	86.6748	93.2	72.1433	82.9	57.4159	73.8	39.85	56.3	25.3131	37.4	12.7513% and 5.338%	6.402% and 0.6734%	3.022% and 0%	1.539% and 0%	5	half-life at 10 μM [1]: 18.5 h
CC(C)C[C@@H]1NC(=O)[C@H](CCC(N)=O)NC(=O)[C@H](Cc2c[nH]cn2)NC(=O)[C@@H]2CSCCC(=O)N3CN(CN(C3)C(=O)CCSC[C@H](NC(=O)[C@@H](N)CCCNC(=N)N)C(=O)N[C@@H](Cc3ccccc3)C(=O)N[C@@H](CCCNC(=N)N)C(=O)N[C@@H](CC(C)C)C(=O)N3CCC[C@H]3C(=O)N2)C(=O)CCSC[C@@H](C(=O)N[C@@H](CCCNC(=N)N)C(N)=O)NC(=O)[C@H](CCCNC(=N)N)NC1=O [FXII851] (HELM PEPTIDE1{R.C.F.R.L.P.C.H.Q.L.R.C.R.[am]}|CHEM1{[O=C(CC[*:1])N1CN(C(=O)CC[*:2])CN(C(=O)CC[*:3])C1]}$PEPTIDE1,CHEM1,2:R3-1:R1|PEPTIDE1,CHEM1,7:R3-1:R2|PEPTIDE1,CHEM1,12:R3-1:R3$$$V2.0)	36	96.2983	93.8	91.5155	90.5	83.5319	84.1	70.2169	72.3	54.9417	56.8	37.7877	38.2	12.5321%	6.25%	1.167% and 2.638%	1.099%	6.5	Residual activity of human FXIIa (human β-FXIIa; inhibitor 25 nM, […]): 23.2045%; remaining activity at […] (human β-FXIIa; inhibitor 25 nM, read-out: Residual activity of human FXIIa): 25%; remaining activity at 0.05 µM (human β-FXIIa; inhibitor 50 nM, read-out: Residual activity of human FXIIa): 14.1%; remaining activity at 0.1 µM (human β-FXIIa; inhibitor 100 nM, read-out: Residual activity of human FXIIa): 6.97%; remaining activity at 0.4 µM (human β-FXIIa; inhibitor 400 nM, read-out: Residual activity of human FXIIa): 1.94%
CC(C)C[C@@H]1NC(=O)[C@H](CCC(N)=O)NC(=O)[C@H](Cc2c[nH]cn2)NC(=O)[C@@H]2CSCCC(=O)N3CN(CN(C3)C(=O)CCSC[C@H](NC(=O)[C@@H](CO)NC(=O)[C@H](N)CCCNC(=N)N)C(=O)N[C@@H](Cc3ccc(F)cc3)C(=O)N[C@@H](CCCNC(=N)N)C(=O)N[C@@H](CC(C)C)C(=O)N3CCC[C@H]3C(=O)N2)C(=O)CCSC[C@@H](C(=O)N[C@@H](CCCNC(=N)N)C(N)=O)NC(=O)C[C@H](CCCNC(=N)N)NC1=O [FXII900 (with C-term Arg)] (H-[dR][dS]C[Phe(4-F)]RLPCHQL[β3hR]CR-NH2; linker 3-8-13 via TATA)	0.5 ± 0.15	–	–	–	–	–	–	–	–	–	–	–	–	–	–	–	–	0.34 ± 0.03	–
CC(C)C[C@@H]1NC(=O)[C@H](CCC(N)=O)NC(=O)[C@H](Cc2c[nH]cn2)NC(=O)[C@@H]2CSCCC(=O)N3CN(CN(C3)C(=O)CCSC[C@H](NC(=O)[C@@H](CO)NC(=O)[C@H](N)CCCNC(=N)N)C(=O)N[C@@H](Cc3ccccc3)C(=O)N[C@@H](CCCNC(=N)N)C(=O)N[C@@H](CC(C)C)C(=O)N3CCC[C@H]3C(=O)N2)C(=O)CCSC[C@@H](C(=O)N[C@@H](CCCNC(=N)N)C(N)=O)NC(=O)C[C@H](CCCNC(=N)N)NC1=O [Phe3Phe4F reverted] (HELM PEPTIDE1{[dR].[dS].C.F.R.L.P.C.H.Q.L.[N=C(N)NCCC[C@@H](CC(=O)[*:2])N[*:1]].C.R.[am]}|CHEM1{[O=C(CC[*:1])N1CN(C(=O)CC[*:2])CN(C(=O)CC[*:3])C1]}$PEPTIDE1,CHEM1,3:R3-1:R1|PEPTIDE1,CHEM1,8:R3-1:R2|PEPTIDE1,CHEM1,13:R3-1:R3$$$V2.0)	1.9 ± 0.5	–	–	–	–	–	–	–	–	–	–	–	–	–	–	–	–	0.7 ± 0.06	–
